In PubChem BioAssay AID250 (DTP/NCI, 2004):
“And” between values parts separate entries of the source, which are not always exact repeats. Identical values can stand only once. Toxic doses and inconclusive results are not listed.

Tested on: BDF1 mice, L1210 leukemia sc, survival T/C
Assay: NCI In Vivo Anticancer Drug Screen. Data for tumor model L1210 Leukemia (subcutaneous) in B6D2F1 (BDF1) mice
Conditions: endpoint: median survival time, higher = longer survival
In short: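 Transplantable tumor-bearing mice; survival or tumor size recorded; result = T/C, treated vs vehicle control.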

[1] = dose: 5.0 mg/kg/injection, schedule: Q01DX Z (sc), vehicle: saline
[2] = dose: 8.4 mg/kg/injection, schedule: Q01DX Z (sc), vehicle: saline
[3] = dose: 14.0 mg/kg/injection, schedule: Q01DX Z (sc), vehicle: saline
[4] = dose: 23.0 mg/kg/injection, schedule: Q01DX Z (sc), vehicle: saline
[5] = dose: 4.7 mg/kg/injection, schedule: Q01DX Z (sc), vehicle: saline
[6] = dose: 7.8 mg/kg/injection, schedule: Q01DX Z (sc), vehicle: saline
[7] = dose: 0.65 mg/kg/injection, schedule: Q01DX Z (sc), vehicle: saline
[8] = dose: 1.08 mg/kg/injection, schedule: Q01DX Z (sc), vehicle: saline
[9] = dose: 2.8 mg/kg/injection, schedule: Q01DX Z (sc), vehicle: saline
[10] = dose: 180.0 mg/kg/injection, schedule: Q01DX Z (sc), vehicle: methylcellulose (MC)
[11] = dose: 300.0 mg/kg/injection, schedule: Q01DX Z (sc), vehicle: methylcellulose (MC)

## CC[C@]1(O)C[C@H]2CN(CCc3c([nH]c4ccccc34)[C@@](C(=O)OC)(c3cc4c(cc3OC)N(C=O)[C@H]3[C@@](O)(C(=O)OC)[C@H](OC(C)=O)[C@]5(CC)C=CCN6CC[C@]43[C@@H]65)C2)C1
dose: 0.25 mg/kg/injection, schedule: Q01DX001 (sc), vehicle: water
  T/C: 100 % of control and 101 % of control
dose: 0.5 mg/kg/injection, schedule: Q01DX001 (sc), vehicle: water
  T/C: 104 % of control and 105 % of control
dose: 0.65 mg/kg/injection, schedule: Q01DX Z (oral), vehicle: water
  T/C: 116 % of control
dose: 1.0 mg/kg/injection, schedule: Q01DX001 (sc), vehicle: water
  T/C: 111 % of control
dose: 1.08 mg/kg/injection, schedule: Q01DX Z (oral), vehicle: water
  T/C: 122 % of control
dose: 1.08 mg/kg/injection, schedule: Q02DX Z (sc), vehicle: water
  T/C: 111 % of control
dose: 1.8 mg/kg/injection, schedule: Q01DX Z (oral), vehicle: water
  T/C: 100 % of control
dose: 1.8 mg/kg/injection, schedule: Q02DX Z (sc), vehicle: water
  T/C: 122 % of control
dose: 2.0 mg/kg/injection, schedule: Q01DX001 (sc), vehicle: water
  T/C: 120 % of control and 122 % of control
dose: 3.0 mg/kg/injection, schedule: Q01DX Z (oral), vehicle: water
  T/C: 100 % of control
dose: 3.0 mg/kg/injection, schedule: Q02DX Z (sc), vehicle: water
  T/C: 122 % of control
dose: 5.0 mg/kg/injection, schedule: Q01DX Z (oral), vehicle: water
  T/C: 100 % of control
dose: 5.0 mg/kg/injection, schedule: Q02DX Z (sc), vehicle: water
  T/C: 116 % of control
dose: 8.4 mg/kg/injection, schedule: Q02DX Z (sc), vehicle: water
  T/C: 100 % of control

## C[n+]1cccc2cc(NC(=O)c3ccc(C(=O)Nc4ccc5c(ccc[n+]5C)c4)cc3)ccc21
dose: 3.0 mg/kg/injection, schedule: Q01DX Z (sc), vehicle: saline
  T/C: 100 % of control
[1]
  T/C: 100 % of control
[2]
  T/C: 100 % of control
[3]
  T/C: 105 % of control
[4]
  T/C: 100 % of control
dose: 39.0 mg/kg/injection, schedule: Q01DX Z (sc), vehicle: saline
  T/C: 233 % of control
dose: 65.0 mg/kg/injection, schedule: Q01DX Z (sc), vehicle: saline
  T/C: 172 % of control
dose: 108.0 mg/kg/injection, schedule: Q01DX Z (sc), vehicle: saline
  T/C: 205 % of control
dose: 180.0 mg/kg/injection, schedule: Q01DX Z (sc), vehicle: saline
  T/C: 194 % of control

## O=C(CCN1CC1)OCCOC(=O)CCN1CC1
[5]
  T/C: 100 % of control
[6]
  T/C: 100 % of control
dose: 13.0 mg/kg/injection, schedule: Q01DX Z (sc), vehicle: saline
  T/C: 100 % of control
dose: 21.0 mg/kg/injection, schedule: Q01DX Z (sc), vehicle: saline
  T/C: 111 % of control

## O[C@H](CN1CC1)[C@@H](O)CN1CC1
dose: 0.14 mg/kg/injection, schedule: Q01DX Z (sc), vehicle: saline
  T/C: 100 % of control
dose: 0.22 mg/kg/injection, schedule: Q01DX Z (sc), vehicle: saline
  T/C: 111 % of control
dose: 0.23 mg/kg/injection, schedule: Q01DX Z (sc), vehicle: saline
  T/C: 111 % of control
dose: 0.6 mg/kg/injection, schedule: Q01DX Z (sc), vehicle: saline
  T/C: 177 % of control
[7]
  T/C: 183 % of control
dose: 1.0 mg/kg/injection, schedule: Q01DX Z (sc), vehicle: saline
  T/C: 172 % of control
[8]
  T/C: 155 % of control
[9]
  T/C: 122 % of control

## C=CCNC(=O)NCC=C
dose: 100.0 mg/kg/injection, schedule: Q01DX001 (ip), vehicle: saline
  T/C: 105 % of control
dose: 100.0 mg/kg/injection, schedule: Q01DX001 (sc), vehicle: saline
  T/C: 111 % of control
dose: 100.0 mg/kg/injection, schedule: Q04DX003 (ip), vehicle: saline
  T/C: 111 % of control
dose: 100.0 mg/kg/injection, schedule: Q04DX003 (sc), vehicle: saline
  T/C: 111 % of control
dose: 200.0 mg/kg/injection, schedule: Q01DX001 (ip), vehicle: saline
  T/C: 111 % of control
dose: 200.0 mg/kg/injection, schedule: Q01DX001 (sc), vehicle: saline
  T/C: 111 % of control
dose: 200.0 mg/kg/injection, schedule: Q01DX009 (ip), vehicle: saline
  T/C: 150 % of control
dose: 200.0 mg/kg/injection, schedule: Q04DX003 (ip), vehicle: saline
  T/C: 122 % of control

## Cc1cccc(C)c1NC(=O)N(CCCl)N=O
dose: 8.4 mg/kg/injection, schedule: Q01DX Z (sc), vehicle: carboxymethylcellulose (CMC)
  T/C: 106 % of control
dose: 23.0 mg/kg/injection, schedule: Q01DX Z (sc), vehicle: carboxymethylcellulose (CMC)
  T/C: 181 % of control
dose: 39.0 mg/kg/injection, schedule: Q01DX Z (sc), vehicle: carboxymethylcellulose (CMC)
  T/C: 287 % of control
dose: 65.0 mg/kg/injection, schedule: Q01DX Z (sc), vehicle: carboxymethylcellulose (CMC)
  T/C: 337 % of control
dose: 108.0 mg/kg/injection, schedule: Q01DX Z (sc), vehicle: carboxymethylcellulose (CMC)
  T/C: 162 % of control

## C[n+]1ccc(Nc2ccc(NC(=O)c3ccc(Nc4cc[n+](C)c5ccc(N)cc45)cc3)cc2)cc1
dose: 0.5 mg/kg/injection, schedule: Q01DX009 (ip), vehicle: Klucel (hydroxypropylcellulose) (HPC)
  T/C: 100 % of control
dose: 1.0 mg/kg/injection, schedule: Q01DX009 (ip), vehicle: Klucel (hydroxypropylcellulose) (HPC)
  T/C: 110 % of control
dose: 2.0 mg/kg/injection, schedule: Q01DX009 (ip), vehicle: Klucel (hydroxypropylcellulose) (HPC)
  T/C: 182 % of control
dose: 4.0 mg/kg/injection, schedule: Q01DX009 (ip), vehicle: Klucel (hydroxypropylcellulose) (HPC)
  T/C: 250 % of control
dose: 8.0 mg/kg/injection, schedule: Q01DX009 (ip), vehicle: Klucel (hydroxypropylcellulose) (HPC)
  T/C: 291 % of control

## C=CC(O)CN1CC1 (stereo not drawn)
[7]
  T/C: 100 % of control
[8]
  T/C: 100 % of control
dose: 1.7 mg/kg/injection, schedule: Q01DX Z (sc), vehicle: saline
  T/C: 100 % of control
dose: 1.8 mg/kg/injection, schedule: Q01DX Z (sc), vehicle: saline
  T/C: 100 % of control
[9]
  T/C: 111 % of control
dose: 3.0 mg/kg/injection, schedule: Q02DX Z (sc), vehicle: saline
  T/C: 104 % of control
[5]
  T/C: 160 % of control
[1]
  T/C: 155 % of control and 159 % of control and 163 % of control
dose: 5.0 mg/kg/injection, schedule: Q02DX Z (sc), vehicle: saline
  T/C: 118 % of control
[6]
  T/C: 170 % of control and 177 % of control
[2]
  T/C: 122 % of control
dose: 8.4 mg/kg/injection, schedule: Q## X Z (sc), vehicle: saline
  T/C: 109 % of control
[3]
  T/C: 113 % of control
dose: 14.0 mg/kg/injection, schedule: Q02DX Z (sc), vehicle: saline
  T/C: 181 % of control
dose: 14.0 mg/kg/injection, schedule: Q## X Z (sc), vehicle: saline
  T/C: 118 % of control
dose: 21.6 mg/kg/injection, schedule: Q01DX Z (sc), vehicle: saline
  T/C: 110 % of control
[4]
  T/C: 100 % of control
dose: 23.0 mg/kg/injection, schedule: Q02DX Z (sc), vehicle: saline
  T/C: 150 % of control
dose: 23.0 mg/kg/injection, schedule: Q## X Z (sc), vehicle: saline
  T/C: 154 % of control
dose: 36.0 mg/kg/injection, schedule: Q01DX Z (sc), vehicle: saline
  T/C: 111 % of control
dose: 39.0 mg/kg/injection, schedule: Q## X Z (sc), vehicle: saline
  T/C: 159 % of control
dose: 60.0 mg/kg/injection, schedule: Q01DX Z (sc), vehicle: saline
  T/C: 100 % of control
dose: 65.0 mg/kg/injection, schedule: Q01DX001 (sc), vehicle: saline
  T/C: 118 % of control
dose: 65.0 mg/kg/injection, schedule: Q02DX Z (sc), vehicle: saline
  T/C: 104 % of control
dose: 65.0 mg/kg/injection, schedule: Q## X Z (sc), vehicle: saline
  T/C: 109 % of control

## O=C(Nc1ccc(C2=NCCN2)cc1)c1ccc(NC(=O)c2ccc(C3=NCCN3)cc2)cc1
dose: 39.0 mg/kg/injection, schedule: Q01DX Z (sc), vehicle: methylcellulose (MC)
  T/C: 95 % of control
[10]
  T/C: 115 % of control
[11]
  T/C: 110 % of control

## CCOC(=O)NP(=O)(N1CC1(C)C)N1CC1(C)C (stereo not drawn)
dose: 65.0 mg/kg/injection, schedule: Q01DX Z (sc), vehicle: methylcellulose (MC)
  T/C: 91 % of control
dose: 108.0 mg/kg/injection, schedule: Q01DX Z (sc), vehicle: methylcellulose (MC)
  T/C: 100 % of control
dose: 130.0 mg/kg/injection, schedule: Q01DX Z (sc), vehicle: methylcellulose (MC)
  T/C: 95 % of control
[10]
  T/C: 100 % of control
dose: 216.0 mg/kg/injection, schedule: Q01DX Z (sc), vehicle: methylcellulose (MC)
  T/C: 100 % of control
[11]
  T/C: 100 % of control
dose: 500.0 mg/kg/injection, schedule: Q01DX Z (sc), vehicle: methylcellulose (MC)
  T/C: 100 % of control
